Measurements taken from patent US10512700B2, “Radiohalide-labeled targeted diagnostics and therapeutics” (Memorial Sloan Kettering Cancer Center, priority 2014, dated 2019).
Several values for one entry are separate records, joined by “and”; a condition that tells them apart may be missing. Equal values may be shown once.

Test system: U251 MG tumor bearing mice
Assay: Biodistribution
Assay type: in vivo, mouse
Conditions: C-2d, i.v., 2 h post injection
Description: Biodistribution studies were conducted on female nude mice (8-10 weeks old and 20-25 g in weight, n=21) bearing U251 MG subcutaneous xenografts. The radiolabeled preparation (20-30 μCi of compound C-2d (^131I) in 200 μL of a solution 90% PBS 10% PEG300) was administrated via the lateral tail vein. The compound was allowed to circulate for 2 h post injection at which time mice were sacrificed and organs were harvested (n=3). The radioactive content in tissue of interest (blood, tumor, muscle, bone, liver, spleen, kidney, heart, lung, pancreas, brain, skin, small intestine, large intestine, stomach, tail, thyroid and feces) was measured on a Wizard 2470 Automatic Gamma Counter, and the tissue-associated activity was calculated as the mean % ID/g using the following formula: [(activity in the target organ/grams of tissue)/injected dose]×100%.
Biodistribution studies were performed in subcutaneous U251 MG xenograft bearing athymic nude mice (n=12). Mice were divided in two groups (blocked and unblocked) and administered with C-2f (approximately 50 μCi, 45 mCi/μmol in […], 10% EtOH in 0.9% sterile saline) via tail vein injection. […] Mice were sacrificed by CO2 asphyxiation at 120 min post injection and major organs were collected, weighed, and counted in a WIZARD^2 automatic γ-counter (PerkinElmer, Boston, Mass.). The radiopharmaceutical uptake was expressed as a percentage of injected dose per gram (% ID/g) using the following formula: [(activity in the target organ/grams of tissue)/injected dose]×100%.

% ID/g, Blood: 0.27 % ID/g | % ID/g, Bone: 0.07 % ID/g | % ID/g, Brain: 0.011±0.003 % ID/g and 0.01 % ID/g | % ID/g, Feces: 4.34 % ID/g | % ID/g, Heart: 0.16 % ID/g | % ID/g, Kidneys: 0.61 % ID/g | % ID/g, Large intestine: 1.26 % ID/g | % ID/g, Liver: 2.34 % ID/g | % ID/g, Lung: 0.28 % ID/g | % ID/g, Muscle: 0.03±0.01 % ID/g and 0.03 % ID/g | % ID/g, Pancreas: 0.15 % ID/g | % ID/g, Skin: 0.25 % ID/g | % ID/g, Small intestine: 11.70 % ID/g | % ID/g, Spleen: 0.40 % ID/g | % ID/g, Stomach: 0.88 % ID/g | % ID/g, Tail: 0.60 % ID/g | % ID/g, Thyroid: 0.24 % ID/g | % ID/g, Tumor: 0.43±0.06 % ID/g and 0.43 % ID/g
SMILES: O=C(c1ccc([131I])cc1)N1CCN(C(=O)c2cc(Cc3n[nH]c(=O)c4ccccc34)ccc2F)CC1 [C-2d (^131I)]
